# Results from patent US12459922B2 (Gilead Sciences, Inc., priority 2022, dated 2025).
# Test system: endogenous cellular STAT1 (phosphorylated at Tyr701) in NCI-H1373 cells
# Assay: Phospho-STAT1 (Tyr701) LANCE Ultra TR-FRET Detection Assay
# Format: cell-based
# Settings: Homo sapiens, NCI-H1373, 48 h, phospho-STAT1 (Tyr701) induction, read-out: NH1373 pSTAT1 EC50
row,Compound,EC50 [nM]
1,"Nc1nc(-c2cc3ccn(C[C@@H]4CCC[C@H](Nc5cn[nH]c(=O)c5C(F)(F)F)C4)c(=O)c3cc2F)nc(C2CC2)c1Cl [Example 282, 6-(4-amino-5-chloro-6-cyclopropylpyrimidin-2-yl)-7-fluoro-2-(((1R,3S)-3-((6-oxo-5-(trifluoromethyl)-1,6-dihydropyridazin-4-yl)amino)cyclohexyl)methyl)isoquinolin-1(2H)-one]",80.1
2,"CC(C)(O)c1ccc(-c2cc3ccn(C[C@@H]4CCC[C@H](Nc5cn[nH]c(=O)c5C(F)(F)F)C4)c(=O)c3cc2F)nc1 [Example 283, 7-fluoro-6-(5-(2-hydroxypropan-2-yl)pyridin-2-yl)-2-(((1R,3S)-3-((6-oxo-5-(trifluoromethyl)-1,6-dihydropyridazin-4-yl)amino)cyclohexyl)methyl)isoquinolin-1(2H)-one]",113
3,"CC(C)(O)c1cnc(-c2cc3ccn(C[C@@H]4CCC[C@H](Nc5cn[nH]c(=O)c5C(F)(F)F)C4)c(=O)c3cc2F)nc1 [Example 284, 7-fluoro-6-(5-(2-hydroxypropan-2-yl)pyrimidin-2-yl)-2-(((1R,3S)-3-((6-oxo-5-(trifluoromethyl)-1,6-dihydropyridazin-4-yl)amino)cyclohexyl)methyl)isoquinolin-1(2H)-one]",51.7
4,"O=c1[nH]ncc(N[C@H]2CCC[C@@H](Cn3ccc4cc(-c5ncc(C(F)(F)F)cn5)cc(F)c4c3=O)C2)c1C(F)(F)F [Example 285, 8-fluoro-2-(((1R,3S)-3-((6-oxo-5-(trifluoromethyl)-1,6-dihydropyridazin-4-yl)amino)cyclohexyl)methyl)-6-(5-(trifluoromethyl)pyrimidin-2-yl)isoquinolin-1(2H)-one]",78.7
5,"COc1cnc(-c2cc3ccn(CCC[C@H](C)Nc4cn[nH]c(=O)c4C(F)(F)F)c(=O)c3cc2F)nc1N1CC(O)(C(F)(F)F)C1 [Example 286, (S)-7-fluoro-6-(4-(3-hydroxy-3-(trifluoromethyl)azetidin-1-yl)-5-methoxypyrimidin-2-yl)-2-(4-((6-oxo-5-(trifluoromethyl)-1,6-dihydropyridazin-4-yl)amino)pentyl)isoquinolin-1(2H)-one]",61.9
6,"COc1cnc(-c2cc3ncn(CCC[C@H](C)Nc4cn[nH]c(=O)c4C(F)(F)F)c(=O)c3cc2F)nc1N1CC(O)(C(F)(F)F)C1 [Example 287, (S)-6-fluoro-7-(4-(3-hydroxy-3-(trifluoromethyl)azetidin-1-yl)-5-methoxypyrimidin-2-yl)-3-(4-((6-oxo-5-(trifluoromethyl)-1,6-dihydropyridazin-4-yl)amino)pentyl)quinazolin-4(3H)-one]",137
7,"C[C@@H](CCCn1ccc2cc(-c3ncc(C(F)(F)F)cc3C#N)c(F)cc2c1=O)Nc1cn[nH]c(=O)c1C(F)(F)F [Example 289, (S)-2-(7-fluoro-1-oxo-2-(4-((6-oxo-5-(trifluoromethyl)-1,6-dihydropyridazin-4-yl)amino)pentyl)-1,2-dihydroisoquinolin-6-yl)-5-(trifluoromethyl)nicotinonitrile]",108
8,"C[C@@H](CCCn1ccc2cc(-c3nc(N)ccc3C#N)c(F)cc2c1=O)Nc1cn[nH]c(=O)c1C(F)(F)F [Example 291, (S)-6-amino-2-(7-fluoro-1-oxo-2-(4-((6-oxo-5-(trifluoromethyl)-1,6-dihydropyridazin-4-yl)amino)pentyl)-1,2-dihydroisoquinolin-6-yl)nicotinonitrile]",709
9,"C[C@@H](CCCn1ccc2cc(-c3ccc(C#N)c(C(F)(F)F)n3)c(F)cc2c1=O)Nc1cn[nH]c(=O)c1C(F)(F)F [Example 295, (S)-6-(7-fluoro-1-oxo-2-(4-((6-oxo-5-(trifluoromethyl)-1,6-dihydropyridazin-4-yl)amino)pentyl)-1,2-dihydroisoquinolin-6-yl)-2-(trifluoromethyl)nicotinonitrile]",2020
10,"Cc1ccc(-c2cc3ccn(CCC[C@H](C)Nc4cn[nH]c(=O)c4C(F)(F)F)c(=O)c3cc2F)nc1C(F)(F)F [Example 296, (S)-7-fluoro-6-(5-methyl-6-(trifluoromethyl)pyridin-2-yl)-2-(4-((6-oxo-5-(trifluoromethyl)-1,6-dihydropyridazin-4-yl)amino)pentyl)isoquinolin-1(2H)-one]",1460
11,"C[C@@H](CCCn1ccc2cc(-c3nc(N4CCOCC4)c4sccc4n3)c(F)cc2c1=O)Nc1cn[nH]c(=O)c1C(F)(F)F [Example 298, (S)-7-fluoro-6-(4-morpholinothieno[3,2-d]pyrimidin-2-yl)-2-(4-((6-oxo-5-(trifluoromethyl)-1,6-dihydropyridazin-4-yl)amino)pentyl)isoquinolin-1(2H)-one]",32

# Molecules with a lower EC50, results first:
row,EC50 [nM],Compound
1,2.87,"O=c1[nH]ncc(N[C@H]2CCC[C@@H](Cn3c(=O)[nH]c4cc(-c5ncc(C(F)(F)F)cn5)c(F)cc4c3=O)C2)c1C(F)(F)F [Example 281, 6-fluoro-3-(((1R,3S)-3-((6-oxo-5-(trifluoromethyl)-1,6-dihydropyridazin-4-yl)amino)cyclohexyl)methyl)-7-(5-(trifluoromethyl)pyrimidin-2-yl)quinazoline-2,4(1H,3H)-dione]"
2,10.5,"C[C@@H]1[C@H](O)CN1c1nc(-c2cc3ncn(CCC[C@H](C)Nc4cn[nH]c(=O)c4C(F)(F)F)c(=O)c3cc2F)ncc1C(F)(F)F [Example 288, 6-fluoro-7-(4-((2R,3R)-3-hydroxy-2-methylazetidin-1-yl)-5-(trifluoromethyl)pyrimidin-2-yl)-3-((S)-4-((6-oxo-5-(trifluoromethyl)-1,6-dihydropyridazin-4-yl)amino)pentyl)quinazolin-4(3H)-one]"
3,21.3,"C[C@@H](CCCn1ccc2cc(-c3nc(N)c(C(F)(F)F)cc3C#N)c(F)cc2c1=O)Nc1cn[nH]c(=O)c1C(F)(F)F [Example 290, (S)-6-amino-2-(7-fluoro-1-oxo-2-(4-((6-oxo-5-(trifluoromethyl)-1,6-dihydropyridazin-4-yl)amino)pentyl)-1,2-dihydroisoquinolin-6-yl)-5-(trifluoromethyl)nicotinonitrile]"
4,16,"C[C@@H](CCCn1ccc2cc(-c3ncc4ccsc4n3)c(F)cc2c1=O)Nc1cn[nH]c(=O)c1C(F)(F)F [Example 292, (S)-7-fluoro-2-(4-((6-oxo-5-(trifluoromethyl)-1,6-dihydropyridazin-4-yl)amino)pentyl)-6-(thieno[2,3-d]pyrimidin-2-yl)isoquinolin-1(2H)-one]"
5,5.28,"C[C@@H](CCCn1ccc2cc(-c3ccc(Cl)c(N)n3)c(F)cc2c1=O)Nc1cn[nH]c(=O)c1C(F)(F)F [Example 293, (S)-6-(6-amino-5-chloropyridin-2-yl)-7-fluoro-2-(4-((6-oxo-5-(trifluoromethyl)-1,6-dihydropyridazin-4-yl)amino)pentyl)isoquinolin-1(2H)-one]"
6,28.8,"C[C@@H](CCCn1cnc2cc(-c3ccc(Cl)c(N)n3)c(F)cc2c1=O)Nc1cn[nH]c(=O)c1C(F)(F)F [Example 294, (S)-7-(6-amino-5-chloropyridin-2-yl)-6-fluoro-3-(4-((6-oxo-5-(trifluoromethyl)-1,6-dihydropyridazin-4-yl)amino)pentyl)quinazolin-4(3H)-one]"
7,3.71,"CC[C@@H](CCCn1ccc2cc(-c3ncc(C(F)F)c(N)n3)c(F)cc2c1=O)Nc1cn[nH]c(=O)c1C(F)(F)F [Example 297, (S)-6-(4-amino-5-(difluoromethyl)pyrimidin-2-yl)-7-fluoro-2-(4-((6-oxo-5-(trifluoromethyl)-1,6-dihydropyridazin-4-yl)amino)hexyl)isoquinolin-1(2H)-one]"
